Laboratory results published in patent publication US8741836B2, “Polypeptides” (Novo Nordisk A/S, priority 2011, dated 2014).
Starred links: 1 amine or outer side, 2 acyl side, 3 side chain; linkers in the order of their positions; H or OH if unused. Positions of bridges follow the written chain, without caps; N, C: chain ends. Residues, ends and D or L forms follow the SMILES beside them. *: point of attachment. C20 diacid = O=C(O)CCCCCCCCCCCCCCCCCCC(=O)*; γGlu = O=C(O)[C@H](CCC(=O)[*:2])N[*:1]; AEEA = NCCOCCOCC(=O)O

Key:
[1] = target: T1, human amylin 3(a) receptor (human calcitonin receptor + RAMP-3) (Homo sapiens, UniProt O60896+P30988); assay: Assay (II)a functional assay, human amylin receptor (CRE luciferase reporter in BHK cells); format: cell-based; conditions: Table 6; human amylin receptor
T1 construct: expressed in transfected cells; CRE-luciferase reporter
T1 sequence (P30988 25-474): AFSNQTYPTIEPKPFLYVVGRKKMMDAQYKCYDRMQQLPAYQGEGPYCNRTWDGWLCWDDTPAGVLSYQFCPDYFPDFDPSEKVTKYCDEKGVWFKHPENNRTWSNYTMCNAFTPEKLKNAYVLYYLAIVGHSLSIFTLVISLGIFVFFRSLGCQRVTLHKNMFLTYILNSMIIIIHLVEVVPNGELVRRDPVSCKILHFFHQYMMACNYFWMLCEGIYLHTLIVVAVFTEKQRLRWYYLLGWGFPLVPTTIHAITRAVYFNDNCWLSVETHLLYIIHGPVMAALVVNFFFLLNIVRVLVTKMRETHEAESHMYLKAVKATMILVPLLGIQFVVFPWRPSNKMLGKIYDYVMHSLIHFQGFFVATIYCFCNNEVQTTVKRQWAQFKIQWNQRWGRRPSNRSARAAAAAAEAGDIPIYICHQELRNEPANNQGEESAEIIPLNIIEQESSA
T1 sequence (O60896 24-148 partner): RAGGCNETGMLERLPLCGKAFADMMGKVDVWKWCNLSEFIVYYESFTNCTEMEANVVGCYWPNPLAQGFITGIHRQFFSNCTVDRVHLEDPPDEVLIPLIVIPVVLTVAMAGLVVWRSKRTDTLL
Text: (§1) 1. Luciferase Assay Outline
(§2) Activation of calcitonin and amylin (coexpression of calcitonin receptor and receptor activity modifying proteins (RAMP)) receptors lead to increased intracellular concentrations of cAMP. Consequently, transcription is activated by promoters containing multiple copies of the cAMP response element (CRE). It is thus possible to measure amylin activity by the use of a CRE luciferase reporter gene introduced into BHK cells also expressing calcitonin or amylin receptors.
(§3) A BHK570 cell line was stably transfected with the human calcitonin receptor and a CRE-responsive luciferase reporter gene. The cell line was further transfected with RAMP-3, using standard methods. This turns the calcitonin receptor into an amylin 3(a) receptor. Methotrexate, Neomycin, and Hygromycin are selection markers for luciferase, the calcitonin receptor, and RAMP-3, respectively.
(§4) To perform activity assays, BHK calcitonin (a) receptor- or amylin 3(a)-receptor/CRE-luc cells were seeded in white 96 well culture plates at a density of about 20.000 cells/well. […] After incubation overnight at 37° C. and 5% CO2, the growth medium was replaced by 50 μl/well assay medium (DMEM (without phenol red), Glutamax™, 10% FBS, and 10 mM Hepes, pH 7.4). Further, 50 μl/well of standard or sample in assay buffer were added. After 3 hours incubation at 37° C. and 5% CO2, the assay medium with standard or sample were removed and replaced by 100 μl/well PBS. Further, 100 μl/well LucLite™ was added. The plates were sealed and incubated at room temperature for 30 minutes. Finally, luminescence was measured on a TopCounter (Packard) in SPC (single photon counting) mode.

[2] = target: T2, human calcitonin receptor (Homo sapiens, UniProt P30988); assay: Assay (II)a functional assay, human calcitonin receptor (CRE luciferase reporter in BHK cells); format: cell-based; conditions: Table 7; human calcitonin (CTa) receptor
T2 construct: expressed in transfected cells; CRE-luciferase reporter
T2 sequence (P30988 25-474): T1 sequence (P30988 25-474)
Text: as §1, §2, §3, §4

ad libitum fed rat = assay: Assay (I) efficacy testing on appetite (food intake) using an ad libitum fed rat model; format: in vivo, Sprague Dawley (SD) rats
Summary of the method: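 Ad libitum fed Sprague Dawley rats, 200-250 g, singly housed on reversed light cycle, got one ip, po or sc dose of 0.01-3 mg/kg just before lights off; groups of 5-8 with vehicle control. Food intake recorded hourly for 7 h, then at 24 h and sometimes 48 h; Grubbs outliers excluded.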

[3] = Assay (III) ThT fibrillation assay for physical stability; format: physicochemical; conditions: pH 4.0, ThT fibrillation assay
Summary of the method: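 Freshly prepared, pH-adjusted formulations with 1 μM ThT incubated at 37 °C under 960 rpm orbital shaking (1 mm), fluorescence (ex 444, em 485 nm) read every 20 min. […] Peptide content before and after measured by reverse-phase HPLC against pramlintide standard.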

Row | EC50 [1] | EC50 [2] | ThT pH 4.0 lag time [3] | SMILES | Food intake reduction 0-24 h 3 nmol/kg (%) (ad libitum fed rat; 0-24 h) | Food intake reduction 24-48 h 3 nmol/kg (%) (ad libitum fed rat; 24-48 h) | Food intake reduction 0-24 h 30 nmol/kg (%) (ad libitum fed rat; 30 nmol/kg, 0-24 h) | Food intake reduction 24-48 h 30 nmol/kg (%) (ad libitum fed rat; 30 nmol/kg, 24-48 h)
1 | 0.385 nM | 0.492 nM |  | CC[C@H](C)[C@H](NC(=O)[C@@H]1CCCN1C(=O)CNC(=O)[C@H](CC(C)C)NC(=O)[C@H](CCC(=O)O)NC(=O)[C@H](CCC(N)=O)NC(=O)[C@@H](NC(=O)[C@H](C)NC(=O)[C@H](CCCNC(=N)N)NC(=O)[C@H](Cc1c[nH]cn1)NC(=O)[C@H](CC(C)C)NC(=O)[C@H](Cc1ccccc1)NC(=O)[C@H](CCC(=O)O)NC(=O)[C@H](C)NC(=O)[C@H](CC(C)C)NC(=O)[C@H](CCCNC(=N)N)NC(=O)[C@H](CCC(N)=O)NC(=O)[C@@H](NC(=O)[C@H](C)NC(=O)[C@@H]1CSSC[C@H](NC(=O)[C@H](Cc2c[nH]cn2)NC(=O)COCCOCCNC(=O)COCCOCCNC(=O)CC[C@H](NC(=O)CCCCCCCCCCCCCCCCCCC(=O)O)C(=O)O)C(=O)N[C@@H](CC(N)=O)C(=O)N[C@@H]([C@@H](C)O)C(=O)N[C@@H](C)C(=O)N[C@@H]([C@@H](C)O)C(=O)N1)[C@@H](C)O)[C@@H](C)O)C(=O)N[C@@H](CC(C)C)C(=O)N1CCC[C@H]1C(=O)N1CCC[C@H]1C(=O)N[C@H](C(=O)N[C@@H](CC(N)=O)C(=O)N[C@H](C(=O)NCC(=O)N[C@@H](CO)C(=O)N[C@@H](CC(N)=O)C(=O)N[C@H](C(=O)N[C@@H](Cc1ccc(O)cc1)C(N)=O)[C@@H](C)O)C(C)C)[C@@H](C)O [Example 23] ({C20 diacid-γGlu-AEEA-AEEA}-HCNTATCATQRLAEFLHRATQELGPILPPTNVGSNTY-NH2; disulfide 2-7) |  |  |  | 
2 |  |  | >45 h | CC[C@H](C)[C@H](NC(=O)[C@@H]1CCCN1C(=O)CNC(=O)[C@H](Cc1ccccc1)NC(=O)[C@H](CC(N)=O)NC(=O)[C@H](CC(N)=O)NC(=O)[C@H](CO)NC(=O)[C@H](CO)NC(=O)[C@H](Cc1c[nH]cn1)NC(=O)[C@H](CCCNC(=N)N)NC(=O)[C@H](CC(C)C)NC(=O)[C@H](Cc1ccccc1)NC(=O)[C@H](CCC(=O)O)NC(=O)[C@H](C)NC(=O)[C@H](CC(C)C)NC(=O)[C@H](CCCNC(=N)N)NC(=O)[C@H](CCC(N)=O)NC(=O)[C@@H](NC(=O)[C@H](C)NC(=O)[C@@H]1CSSC[C@H](NC(=O)[C@H](CCCCN)NC(=O)CC[C@H](NC(=O)CCCCCCCCCCCCCCCCCCC(=O)O)C(=O)O)C(=O)N[C@@H](CC(N)=O)C(=O)N[C@@H]([C@@H](C)O)C(=O)N[C@@H](C)C(=O)N[C@@H]([C@@H](C)O)C(=O)N1)[C@@H](C)O)C(=O)N[C@@H](CC(C)C)C(=O)N1CCC[C@H]1C(=O)N1CCC[C@H]1C(=O)N[C@H](C(=O)N[C@@H](CC(N)=O)C(=O)N[C@H](C(=O)NCC(=O)N[C@@H](CO)C(=O)N[C@@H](Cc1c[nH]cn1)C(=O)N[C@H](C(=O)N[C@@H](Cc1ccc(O)cc1)C(N)=O)[C@@H](C)O)C(C)C)[C@@H](C)O [Example 57, N-alpha-[(S)-4-Carboxy-4-(19-carboxynonadecanoylamino)butyryl]-[Glu14,Arg17,His35]-pramlintide] ({C20 diacid-γGlu}-KCNTATCATQRLAEFLRHSSNNFGPILPPTNVGSHTY-NH2; disulfide 2-7 (inferred)) | 17% | 0% |  | 
3 |  |  | 37 h | CC[C@H](C)[C@H](NC(=O)[C@@H]1CCCN1C(=O)CNC(=O)[C@H](Cc1ccccc1)NC(=O)[C@H](CC(N)=O)NC(=O)[C@H](CC(N)=O)NC(=O)[C@H](CO)NC(=O)[C@H](CO)NC(=O)[C@H](Cc1c[nH]cn1)NC(=O)[C@H](Cc1c[nH]cn1)NC(=O)[C@H](CC(C)C)NC(=O)[C@H](Cc1ccccc1)NC(=O)[C@H](CCC(=O)O)NC(=O)[C@H](C)NC(=O)[C@H](CC(C)C)NC(=O)[C@H](CCCNC(=N)N)NC(=O)[C@H](CCC(N)=O)NC(=O)[C@@H](NC(=O)[C@H](C)NC(=O)[C@@H]1CSSC[C@H](NC(=O)[C@H](CCCCN)NC(=O)CC[C@H](NC(=O)CCCCCCCCCCCCCCCCCCC(=O)O)C(=O)O)C(=O)N[C@@H](CC(N)=O)C(=O)N[C@@H]([C@@H](C)O)C(=O)N[C@@H](C)C(=O)N[C@@H]([C@@H](C)O)C(=O)N1)[C@@H](C)O)C(=O)N[C@@H](CC(C)C)C(=O)N1CCC[C@H]1C(=O)N1CCC[C@H]1C(=O)N[C@H](C(=O)N[C@@H](CC(N)=O)C(=O)N[C@H](C(=O)NCC(=O)N[C@@H](CO)C(=O)N[C@@H](Cc1c[nH]cn1)C(=O)N[C@H](C(=O)N[C@@H](Cc1ccc(O)cc1)C(N)=O)[C@@H](C)O)C(C)C)[C@@H](C)O [Example 55, N-alpha-[(S)-4-Carboxy-4-(19-carboxynonadecanoylamino)butyryl]-[Glu14,His17,His35]-pramlintide] ({C20 diacid-γGlu}-KCNTATCATQRLAEFLHHSSNNFGPILPPTNVGSHTY-NH2; disulfide 2-7 (inferred)) | 58% | 40% | 88% | 90%
4 |  |  | >45 h | CC[C@H](C)[C@H](NC(=O)[C@@H]1CCCN1C(=O)CNC(=O)[C@H](Cc1ccccc1)NC(=O)[C@H](CO)NC(=O)[C@H](CO)NC(=O)[C@H](CO)NC(=O)[C@H](CO)NC(=O)[C@H](CCCNC(=N)N)NC(=O)[C@H](Cc1c[nH]cn1)NC(=O)[C@H](CC(C)C)NC(=O)[C@H](Cc1ccccc1)NC(=O)[C@H](CCC(=O)O)NC(=O)[C@H](C)NC(=O)[C@H](CC(C)C)NC(=O)[C@H](CCCNC(=N)N)NC(=O)[C@H](CCC(N)=O)NC(=O)[C@@H](NC(=O)[C@H](C)NC(=O)[C@@H]1CSSC[C@H](NC(=O)[C@H](Cc2c[nH]cn2)NC(=O)CC[C@H](NC(=O)CCCCCCCCCCCCCCCCCCC(=O)O)C(=O)O)C(=O)N[C@@H](CC(N)=O)C(=O)N[C@@H]([C@@H](C)O)C(=O)N[C@@H](C)C(=O)N[C@@H]([C@@H](C)O)C(=O)N1)[C@@H](C)O)C(=O)N[C@@H](CC(C)C)C(=O)N1CCC[C@H]1C(=O)N1CCC[C@H]1C(=O)N[C@H](C(=O)N[C@@H](CC(=O)O)C(=O)N[C@H](C(=O)NCC(=O)N[C@@H](CO)C(=O)N[C@@H](CC(=O)O)C(=O)N[C@H](C(=O)N[C@@H](Cc1ccc(O)cc1)C(N)=O)[C@@H](C)O)C(C)C)[C@@H](C)O [Example 9, N-alpha-[(S)-4-Carboxy-4-(19-carboxynonadecanoylamino)butyryl]-[His1,Glu14,His17,Arg18,Ser21,Ser22,Asp31,Asp35]-pramlintide] ({C20 diacid-γGlu}-HCNTATCATQRLAEFLHRSSSSFGPILPPTDVGSDTY-NH2; disulfide 2-7) | 39% | 32% |  | 
